Assay results from PubChem BioAssay (NCI).
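96-well plates; 48 h exposure; 5 concentrations. Endpoints by linear interpolation between flanking doses. Not reached: highest tested concentration assigned. Abbreviation: GI50, concentration required for 50% inhibition of growth. TGI: total growth inhibition.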

Key:
Assay in all cases: growth of human tumour cells (NCI), 48 h
UACC-257 melanoma = test system: UACC-257 melanoma
786-0 renal = test system: 786-0 renal
UACC-62 melanoma = test system: UACC-62 melanoma
HOP-92 NSCLC = test system: HOP-92 NSCLC
HS 578T breast = test system: HS 578T breast
MDA-MB-435 = test system: MDA-MB-435
SK-MEL-2 melanoma = test system: SK-MEL-2 melanoma
A498 renal = test system: A498 renal
SNB-19 CNS = test system: SNB-19 CNS
A549 NSCLC = test system: A549 NSCLC
MOLT-4 leukemia = test system: MOLT-4 leukemia
T-47D breast = test system: T-47D breast
HL-60(TB) leukemia = test system: HL-60(TB) leukemia
KM12 colon = test system: KM12 colon
TK-10 renal = test system: TK-10 renal
U251 CNS = test system: U251 CNS
IGROV1 ovarian = test system: IGROV1 ovarian
SNB-75 CNS = test system: SNB-75 CNS
SK-MEL-28 melanoma = test system: SK-MEL-28 melanoma
OVCAR-5 ovarian = test system: OVCAR-5 ovarian
HCC-2998 colon = test system: HCC-2998 colon
CCRF-CEM leukemia = test system: CCRF-CEM leukemia
RPMI-8226 leukemia = test system: RPMI-8226 leukemia
K-562 leukemia = test system: K-562 leukemia
SR leukemia = test system: SR leukemia
EKVX NSCLC = test system: EKVX NSCLC
HT29 colon = test system: HT29 colon

**Q.** Cc1cc(N(CCNc2ccnc3cc(Cl)ccc23)Cc2cccs2)nc(Cl)n1 was tested. Which GI50 (UACC-257 melanoma) did it give?
**A.** 1.84 µM

**Q.** And the TGI (UACC-257 melanoma)?
**A.** 3.56 µM

**Q.** And the GI50 (786-0 renal)?
**A.** 0.429 µM

**Q.** And the TGI (786-0 renal)?
**A.** 1.63 µM

**Q.** And the GI50 (UACC-62 melanoma)?
**A.** 1.69 µM

**Q.** What about the TGI (UACC-62 melanoma) of the same compound?
**A.** 3.19 µM

**Q.** What about the GI50 (HOP-92 NSCLC) of the same compound?
**A.** 1.16 µM

**Q.** What about the TGI (HOP-92 NSCLC) of the same compound?
**A.** 2.61 µM

**Q.** What about the GI50 (HS 578T breast) of the same compound?
**A.** 2.1 µM

**Q.** What about the TGI (HS 578T breast) of the same compound?
**A.** 4.68 µM

**Q.** And the GI50 (MDA-MB-435)?
**A.** 1.56 µM

**Q.** And the TGI (MDA-MB-435)?
**A.** 3.05 µM

**Q.** What about the GI50 (SK-MEL-2 melanoma) of the same compound?
**A.** 1.84 µM

**Q.** What about the TGI (SK-MEL-2 melanoma) of the same compound?
**A.** 3.54 µM

**Q.** What about the GI50 (A498 renal) of the same compound?
**A.** 1.68 µM

**Q.** And the TGI (A498 renal)?
**A.** 4.15 µM

**Q.** What about the GI50 (SNB-19 CNS) of the same compound?
**A.** 2.11 µM

**Q.** What about the TGI (SNB-19 CNS) of the same compound?
**A.** 5.62 µM

**Q.** And the GI50 (A549 NSCLC)?
**A.** 1.43 µM

**Q.** And the TGI (A549 NSCLC)?
**A.** 4.5 µM

**Q.** What about the GI50 (MOLT-4 leukemia) of the same compound?
**A.** 2.48 µM

**Q.** What about the TGI (MOLT-4 leukemia) of the same compound?
**A.** 5.57 µM

**Q.** And the GI50 (T-47D breast)?
**A.** 1.12 µM

**Q.** And the TGI (T-47D breast)?
**A.** 2.88 µM

**Q.** What about the GI50 (HL-60(TB) leukemia) of the same compound?
**A.** 1.99 µM

**Q.** What about the TGI (HL-60(TB) leukemia) of the same compound?
**A.** 3.84 µM

**Q.** What about the GI50 (KM12 colon) of the same compound?
**A.** 1.69 µM

**Q.** What about the TGI (KM12 colon) of the same compound?
**A.** 3.29 µM

**Q.** What about the GI50 (TK-10 renal) of the same compound?
**A.** 1.62 µM

**Q.** And the TGI (TK-10 renal)?
**A.** 2.99 µM

**Q.** And the GI50 (U251 CNS)?
**A.** 0.893 µM

**Q.** What about the TGI (U251 CNS) of the same compound?
**A.** 2.28 µM

**Q.** And the GI50 (IGROV1 ovarian)?
**A.** 1.64 µM

**Q.** And the TGI (IGROV1 ovarian)?
**A.** 3.28 µM

**Q.** What about the GI50 (SNB-75 CNS) of the same compound?
**A.** 1.5 µM

**Q.** What about the TGI (SNB-75 CNS) of the same compound?
**A.** 2.9 µM

**Q.** And the GI50 (SK-MEL-28 melanoma)?
**A.** 1.61 µM

**Q.** And the TGI (SK-MEL-28 melanoma)?
**A.** 3.18 µM

**Q.** And the GI50 (OVCAR-5 ovarian)?
**A.** 1.64 µM

**Q.** What about the TGI (OVCAR-5 ovarian) of the same compound?
**A.** 3.53 µM

**Q.** And the GI50 (HCC-2998 colon)?
**A.** 1.74 µM

**Q.** And the TGI (HCC-2998 colon)?
**A.** 3.4 µM

**Q.** What about the GI50 (CCRF-CEM leukemia) of the same compound?
**A.** 2.07 µM

**Q.** And the TGI (CCRF-CEM leukemia)?
**A.** 5.41 µM

**Q.** What about the GI50 (RPMI-8226 leukemia) of the same compound?
**A.** 1.97 µM

**Q.** And the TGI (RPMI-8226 leukemia)?
**A.** 4.55 µM

**Q.** What about the GI50 (K-562 leukemia) of the same compound?
**A.** 1.02 µM

**Q.** And the TGI (K-562 leukemia)?
**A.** 3.47 µM

**Q.** And the GI50 (SR leukemia)?
**A.** 1.02 µM

**Q.** And the TGI (SR leukemia)?
**A.** 4.02 µM

**Q.** And the GI50 (EKVX NSCLC)?
**A.** 2.08 µM

**Q.** And the TGI (EKVX NSCLC)?
**A.** 7.38 µM

**Q.** What about the GI50 (HT29 colon) of the same compound?
**A.** 1.45 µM

**Q.** And the TGI (HT29 colon)?
**A.** 3.1 µM
